Measurements as given in patent publication US10912741B2, “Prevention of liver cancer with safranal-based formulations” (United Arab Emirates University, priority 2019, dated 2021).

Legend:
[1] = system: myeloperoxidase (MPO); assay: Myeloperoxidase activity in liver homogenate, DEN/2-AAF hepatocarcinogenesis model; type: in vivo, albino Wistar rats; conditions: mean±SEM, 8 rats
Experimental: The experimental hepatocarcinogenesis model was developed according to a protocol by […] et al. that was adapted for our purposes. To initiate and promote hepatocarcinogenesis, diethylnitrosamine (DEN) and 2-acetylaminofluorene (2-AAF) were used, respectively. For hepatocarcinogenesis initiation in this model, a single DEN dose (200 mg/kg b.wt.) dissolved in saline was injected intraperitoneally. After initiation, all rats underwent one period of 5-days fasting, as mitotic proliferative stimuli. To promote hepatocarcinogenesis, 2-acetylaminofluorene (2-AAF) was introduced in the form of six daily intragastric doses (30 mg/kg in 1% Tween 80); two weeks after DEN treatment. […] at doses of 25 mg/kg by weight (b.wt.) and 50 mg/kg b.wt, was administrated orally to rats. These doses have been reported to suppress chemically-induced oxidative damage in rats. A total of 40 adult male albino Wistar rats were randomly divided into […] (n=8) and were subjected to different treatments. Group 1 (control) was orally administered distilled water (5 ml/kg b.wt.) throughout the experimental duration and were injected with a single dose of saline. Group 2 ([…] only) was subjected to a safranal dose (50 mg/kg b.wt.) through oral administration for the duration of the experimental period. Hepatocarcinogenesis was induced by DEN and promoted by 2-AAF, as reported previously, in group 3 (HCC). […] Glutathione (GSH) content was determined by analyzing liver homogenates, according to the method of Van Dooran et al. The assay depends on measuring yellow 5-thiol-2-nitrobenzoate absorbance at 412 nm. Glutathione-S-transferase (GST) activity was determined using the method of Habig et al. GST catalyzes the conjugation of GSH thiol group with 1-Chloro-2,4-dinitrobenzene (CDNB), which can be measured by determining the increase in absorbance at 340 nm. […] CAT decomposes hydrogen peroxide (H2O2) to oxygen and water; therefore, the activity of CAT was evaluated according to by the exponential decomposition of H2O2 at 240 nm. […] UV-160-Shimadzu recording spectrophotometer was used to record absorbances. […]

[2] = system: IL-8 secretion by HepG2 cells; assay: IL-8 ELISA of supernatant of safranal-treated cells; type: cell-based, human; conditions: as early as 6 hrs
Experimental: HepG2, were cultured in RPMI 1640 medium (HyClone, USA) and 1% of 100 U/ml penicillin and 100 ug/ml streptomycin (Sigma, USA) supplemented with 10% fetal bovine serum (Sigma, USA) at 37° C. in a humidified 5% CO2 atmosphere. Cells were sub-cultured each 4-6 days using trypsin 0.25% (Hyclone, USA).
In 100 mm plates, HepG2 cells were seeded at a density of 2×10^4 in complete growth medium. Cells were allowed to attach for 24 hours, after which complete growth medium was replaced by serum-free medium. Cells were treated with safranal at a concentration of 1 mM (20 mM stock). Plates were incubated for 6, 12, 24, and 48 hours in a humidified 5% CO2 atmosphere at 37° C. At indicated times, 1 mL of cell supernatant was obtained from each plate and was stored at −80° C. for further analysis by ELISA. After which whole cell lysates were prepared. Bicinchoninic acid (BCA) assay (Sigma-Aldrich, USA) was used to determine concentration of protein. Thirty μg of protein were loaded onto 10% SDS polyacrylamide electrophoresis gels. […]
Supernatant of safranal-treated cells were used to investigate the effect of safranal on IL-8 secretion level. […] Absorbance was recorded at 450 nm with background subtraction at 570 nm using a microplate reader (Biotek, Winooski, Vt., USA).

## CC1=C(C=O)C(C)(C)CC=C1 [Safranal, 2,6,6-trimethylcyclohexa-1,3-diene-1-carbaldehyde]
[1]; HCC (DEN/2-AAF) rats + safranal high dose 50 mg/kg b.wt. oral, 12 weeks
  MPO: 31.54 ± 2.4 milliunit/mg protein
[1]; HCC (DEN/2-AAF) rats + safranal low dose 25 mg/kg b.wt. oral, 12 weeks
  MPO: 27.47 ± 1.77 milliunit/mg protein
[1]; safranal alone 50 mg/kg b.wt. oral, no DEN (group 2)
  MPO: 32.61 ± 1.61 milliunit/mg protein
[2]
  IL-8 secretion: dramatic decrease in IL-8 secretion
